The values below are quoted from earlier work in US5648396A, “Methods for treating depression and other disorders using optically pure R (-) fluoxetine and monoamine oxidase inhibitor” (Sepracor Inc., priority 1995, dated 1997).

“Also recorded” adds a separate entry of the source.

Series [1] concerns patients.
Series [2] deals with patients. To be noted: in vivo.
The next series concerns 5HIAA. The settings on record: acute effect; Wong et al. 1985.
Series [3] concerns dopamine turnover in striatum. To be noted: in vivo.
For the next series, the system named is histaminergic receptors. The settings on record: than tricyclic antidepressants; brain tissue.
The conditions of series [4]: racemic mixture.
The test system of another series is α1 adrenergic receptors. The settings on record: than tricyclic antidepressants; brain tissue.
The subject of series [5] is morning sickness during pregnancy. The settings on record: control of morning sickness during pregnancy; suggested.
The conditions of series [6]: suggested.
The conditions of series [7]: L-form versus D-enantiomer.
The subject of series [8] is writhing (morphine potentiation). To be noted: Robertson et al 1988.
A further series concerns α2 receptor. The settings on record: relative to effect on 5HT uptake.
Another series has as its system β receptor. The settings on record: relative to effect on 5HT uptake.
The test system of another series is Saccharine palatability. The settings on record: Robertson et al 1988.
The test system of another series is D2 receptor. The settings on record: relative to effect on 5HT uptake.
A further series relates to PCPA effect on 5HT. To be noted: for Duration of Inhibition of PCPA 5HT effect / Inhibition of PCPA effect on 5HT (full block): Fuller & Snoddy 1986; for Inhibition of PCPA effect on 5HT (ED50): Robertson et al 1988.
The test system of the next series is 5HT1 receptor. The settings on record: relative to effect on 5HT uptake.
A further series has as its system 5HT1A receptor. To be noted: relative to effect on 5HT uptake.
For a further series, the system named is HT2 receptor. To be noted: relative to effect on 5HT uptake.
The subject of a further series is α1A receptor. To be noted: relative to effect on 5HT uptake.
Another series relates to Feeding. To be noted: rel. potency R vs S, Wong et al 1988.
In the next series the test system is uptake of norepinephrine. The settings on record: relative to effect on 5HT uptake.
The next series concerns D1 receptor. To be noted: relative to effect on 5HT uptake.
For a further series, the system named is acetic acid writhing. To be noted: Robertson et al 1988.

`CNCCC(Oc1ccc(C(F)(F)F)cc1)c1ccccc1` (racemic) [R,S-Fluoxetine]: the “drug discontinuation due to headaches, nervousness, anxiety and insomnia” value in the series on patients [1] (of patients treated with the drug) is listed as 5%. Besides, the “adverse effects (in words)” value in the series on patients [1] (patients) is “produces a state of inner restlessness (akathisia); also recorded: severe anxiety leading to intense violent suicidal thoughts and self mutilation; also recorded: manic behavior; also recorded: nausea, diarrhea, drowsiness, decrease in libido, and/or sexual dysfunction”. Moreover, in the series on patients [1] (versus tricyclic antidepressants), the “anticholinergic and cardiovascular side effects” value is “less anticholinergic side effects such as blurred vision, dry mouth, constipation and urinary retention; also recorded: less lowering of blood pressure, tachycardia and arrhythmias”. Moreover, the “wait after discontinuing fluoxetine before starting treatment with an MAOI” value with patients [2] is recorded as 5-6 weeks. The “levels of the intracellular serotonin metabolite 5HIAA” value in the series with 5HIAA is “rapid reduction”. Besides, in series [3], the “dopamine turnover in striatum” value is listed as “affects dopamine turnover in striatum”. Further, in the series on histaminergic receptors, the “binding to histaminergic receptors” value was “much less potently”. Besides, the “half-life and duration of action (in words)” value in series [4] was “long half-life and long duration of action”. In addition, in the series on α1 adrenergic receptors, the “binding to α1 adrenergic receptors” value was “much less potently”.

For `O=C1CC[C@@H](N2C(=O)c3ccccc3C2=O)C(=O)N1` [D-enantiomer of thalidomide], in series [5], the sedative effect result was “safe and effective sedative”.

Take `O=C1CC[C@H](N2C(=O)c3ccccc3C2=O)C(=O)N1` [L-enantiomer of thalidomide]: the teratogenicity entry in [6] is on record as “potent teratogen”.

Take `CC(C)NC[C@H](O)COc1cccc2ccccc12` [L-form of propranolol]: the “potency relative to the D-enantiomer” value in [7] was 100 times.

Turning to `CNCC[C@@H](Oc1ccc(C(F)(F)F)cc1)c1ccccc1` [R-Fluoxetine, (-)N-methyl-3-phenyl-3-[(α,α,α-trifluoro-p-tolyl)-oxy]-propylamine], in [8], the “Inhibition of writhing (morphine potentiation; ED50)” value is 3.6 mg/kg. Further, in the series with α2 receptor, the “affinity for α2 receptor” value was “relatively little affinity”. Further, the “affinity for β receptor” value in the series with β receptor is reported as “relatively little affinity”. For the same compound, the “Inhibition of Saccharine palatability (ED50)” value in the series on Saccharine palatability is on record as 6.1 mg/kg. Moreover, the “affinity for D2 receptor” value in the series with D2 receptor is “relatively little affinity”. Further, in the series on PCPA effect on 5HT, the “Duration of Inhibition of PCPA 5HT effect” value is ~ 8 hr, the “Inhibition of PCPA effect on 5HT (ED50)” value is on record as 2.1 mg/kg and the “Inhibition of PCPA effect on 5HT (full block)” value was ~ 10 mg/kg. Also, in the series with 5HT1 receptor, the “affinity for 5HT1 receptor” value is “relatively little affinity”. The “affinity for 5HT1A receptor” value in the series on 5HT1A receptor is recorded as “relatively little affinity”. Also, the “affinity for HT2 receptor” value in the series with HT2 receptor is “relatively little affinity”. For the same compound, the “affinity for α1A receptor” value in the series on α1A receptor is reported as “relatively little affinity”. Besides, in the series with Feeding, the “Inhibition of Feeding (meal fed, 2DG) (rel. potency)” value is recorded as “R < S”. The “affinity for the uptake of norepinephrine” value in the series on uptake of norepinephrine is on record as “relatively little affinity”. Besides, the “affinity for D1 receptor” value in the series with D1 receptor is given as “relatively little affinity”. Moreover, in the series on acetic acid writhing, the “Inhibition of acetic acid writhing (ED50)” value is 15.3 mg/kg.

For the compound `CNCC[C@H](Oc1ccc(C(F)(F)F)cc1)c1ccccc1` [S-Fluoxetine], the “Inhibition of writhing (morphine potentiation; ED50)” value in series [8] is 5.7 mg/kg. In addition, the “affinity for α2 receptor” value in the series on α2 receptor is recorded as “relatively little affinity”. Also, the “affinity for β receptor” value with β receptor is “relatively little affinity”. In addition, in the series on Saccharine palatability, the “Inhibition of Saccharine palatability (ED50)” value is reported as 4.9 mg/kg. In the series with D2 receptor, the “affinity for D2 receptor” value was “relatively little affinity”. Further, in the series on PCPA effect on 5HT, the “Duration of Inhibition of PCPA 5HT effect” value was above 24 h, the “Inhibition of PCPA effect on 5HT (ED50)” value is 1.2 mg/kg and the “Inhibition of PCPA effect on 5HT (full block)” value is listed as ~ 5 mg/kg. The “affinity for 5HT1 receptor” value in the series with 5HT1 receptor is “relatively little affinity”. Also, the “affinity for 5HT1A receptor” value in the series on 5HT1A receptor is listed as “relatively little affinity”. Besides, the “affinity for HT2 receptor” value in the series with HT2 receptor was “relatively little affinity”. The “affinity for α1A receptor” value in the series on α1A receptor is reported as “relatively little affinity”. Besides, in the series on uptake of norepinephrine, the “affinity for the uptake of norepinephrine” value was “relatively little affinity”. The “affinity for D1 receptor” value with D1 receptor is given as “relatively little affinity”. The “Inhibition of acetic acid writhing (ED50)” value with acetic acid writhing is listed as 25.7 mg/kg.
